In PubChem BioAssay (NCI) one finds TGI and GI50 data, which are given here for nine compounds.

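Where inhibition never reached the appropriate level, the endpoint shown equals the highest concentration tested. Otherwise, values were interpolated linearly from a five-concentration, 48-hour dose response in 96-well plates. Abbreviation: GI50, concentration required for 50% inhibition of growth. At the TGI there is no net growth.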 Bounds are passed on as bounds.

Assay in all cases: NCI tumour cell line growth inhibition, 48 h
Test [1] concerns MDA-MB-231 breast.
Test [2] deals with A549 NSCLC.
Test [3] concerns A498 renal.
Test [4] has as its system HOP-92 NSCLC.
Test [5] relates to HOP-62 NSCLC.
For test [6], the system named is IGROV1 ovarian.
Test [7] has as its system SNB-19 CNS.
For test [8], the system named is EKVX NSCLC.
For test [9], the system named is CCRF-CEM leukemia.
Test [10] has as its system NCI-H522 lung.

With `O=S(=O)(c1cccc(C(F)(F)F)c1)N1c2ccccc2-n2cccc2C1c1cccnc1` (centres undefined), the TGI is more than 54.5 µM in [1]; more than 56.4 µM in test [2]; more than 64 µM in [3]; more than 67.7 µM in [4]; more than 66.8 µM in test [5]; more than 100 µM in test [6]. Further, the TGI in test [7] was more than 72.9 µM; in test [8], more than 100 µM; in test [9], more than 51.6 µM; in test [10], more than 53.6 µM.
Regarding `O=C(c1ccccc1)c1ccc(-c2ccc(O)cc2)cc1`, the GI50 in [1] was 6.08 µM; in test [2] it was 3.9 µM; in test [3] it was 13 µM; in test [4], 5.63 µM; in test [5], 7.08 µM; in test [6], 3.69 µM. Moreover, the GI50 was 6.01 µM in test [7], 4.42 µM in [8], 0.533 µM in [9] and 1.66 µM in [10]. The TGI is 37.6 µM in test [1]; more than 65.3 µM in test [2]; more than 58.9 µM in test [3]; 30.3 µM in [4]; 25.9 µM in [5]; 22.7 µM in test [6]. In addition, the TGI is more than 100 µM in test [7], 41.5 µM in [8], more than 23.9 µM in test [9] and 8.47 µM in test [10].
Consider `O=C1OCC(c2ccc(O)c(O)c2)=C1c1cc(O)c(O)c(O)c1`, for which the GI50 in test [1] is 15.2 µM; in [2] it was 21.6 µM; in test [3], more than 100 µM; in test [4], 2.76 µM; in test [5], 18.5 µM; in test [6] it was 37.4 µM. Moreover, the GI50 in test [7] is 25.3 µM; in test [8] it was 70.6 µM; in [9], 30.4 µM; in test [10] it was 47.4 µM. The TGI is 31 µM in test [1]; 76 µM in test [2]; more than 100 µM in test [3]; 18.2 µM in [4]; 33.3 µM in test [5]; more than 100 µM in test [6]. Moreover, the TGI in test [7], in [8], in test [9] and in [10] was more than 100 µM each time.
`CCCOC(=O)N[C@H]1CCc2c(Br)c(OC)c(OC)c(OC)c2-c2ccc(SC)c(=O)cc21`: the GI50 was 0.0359 µM in test [1]; 0.0395 µM in [2]; less than 0.0135 µM in test [3]; 0.0411 µM in test [4]; 0.0633 µM in test [5]; 0.0377 µM in test [6]. Also, the GI50 was 0.0425 µM in test [7], 0.0474 µM in [8], 0.0274 µM in test [9] and less than 0.0119 µM in [10]. Also, the TGI is 6.45 µM in test [1]; more than 68.4 µM in [2]; 0.0509 µM in test [3]; 6.28 µM in test [4]; more than 100 µM in test [5]; more than 46.2 µM in test [6]. The TGI was more than 100 µM in [7], more than 100 µM in test [8], more than 51.2 µM in test [9] and 0.558 µM in test [10].
`Cn1ncc2c(Nc3ccc(Br)cc3)nc(Nc3ccc(Br)cc3)nc21`: the GI50 is 1.8 µM in [1]; 4.46 µM in test [2]; 2.68 µM in [3]; 1.66 µM in test [4]; 4.22 µM in [5]; 3.22 µM in test [6]. The GI50 in [7] was 6.42 µM; in test [8] it was 2.48 µM; in test [9] it was 3.23 µM; in [10] it was 3.44 µM. The TGI in test [1] turned out to be 3.68 µM; in test [2], 30.8 µM; in test [3] it was 9.9 µM; in test [4], 5.23 µM; in test [5], 15.4 µM; in [6] it was 16.7 µM. Also, the TGI in test [7] was 18.9 µM; in test [8] it was 9.73 µM; in test [9] it was 22 µM; in [10], 15.7 µM.
On to `O=C(Cn1ccnc1[N+](=O)[O-])N(CCO)CCO`, for which the TGI in [1] is more than 250 µM; in test [2], more than 1250 µM; in test [3] it was more than 1250 µM; in [4], more than 1250 µM; in [5], more than 250 µM; in [6], more than 1250 µM. The TGI in [7] was more than 1250 µM; in test [8], more than 1250 µM; in [9] it was more than 580 µM; in [10] it was more than 1250 µM. For the same compound, the GI50 in test [2] is more than 1250 µM; in test [3], more than 250 µM; in [4] it was more than 250 µM; in [5], 22.3 µM; in [6], more than 1250 µM; in test [7] it was more than 1250 µM. In addition, the GI50 in test [8] was more than 1250 µM; in test [9], more than 580 µM; in [10], more than 1250 µM.
Regarding `C[C@@H]1O[C@@H](O[C@H]2C[C@@H](O)[C@]3(CO)C4C(CC[C@]3(O)C2)[C@@]2(O)CC[C@H](C3=CC(=O)OC3)[C@@]2(C)C[C@H]4O)[C@H](O)[C@H](O)[C@H]1O` (some centres undefined), the GI50 in [1] is 0.111 µM; in [2], 0.00907 µM; in test [3], 0.0387 µM; in test [4], 0.0597 µM; in [5], 0.0137 µM; in test [6] it was 0.0273 µM. In addition, the GI50 in test [7] is 0.0605 µM; in test [8] it was 0.0151 µM; in [9], 0.0168 µM; in [10], 0.0117 µM. In addition, the TGI in [1] came out at 0.286 µM; in test [2], 0.0172 µM; in test [3], 0.262 µM; in [4] it was 0.25 µM; in [5], 0.0385 µM; in test [6], 0.23 µM. Also, the TGI in test [7] worked out at 0.125 µM; in test [8], 0.0518 µM; in [9] it was 0.0808 µM; in test [10] it was 0.0323 µM.
Regarding `CCOc1ccc(NC(=O)Nc2cc(C(C)C)ccc2C)cc1`, the GI50 in test [1] is 3.79 µM; in test [2], 4.56 µM; in test [3], 3.65 µM; in test [4] it was 1.83 µM; in test [5], 8.78 µM; in test [6], 6.37 µM. Further, the GI50 is 10.4 µM in test [7], 8.55 µM in test [8], more than 25.5 µM in test [9] and 9.53 µM in [10]. In addition, the TGI in test [1] amounted to 15.8 µM; in test [2], 17.6 µM; in [3], 18.6 µM; in [4], 7.54 µM; in test [5] it was 22.8 µM; in test [6], 15.7 µM. Also, the TGI in test [7] was 39 µM; in [8] it was more than 96.7 µM; in [9], more than 100 µM; in test [10], 78.3 µM.
On to `Cc1ccc(S(=O)(=O)N(C)C)cc1[N+](=O)[O-]`, for which the GI50 in test [1] was more than 100 µM; in [2], more than 100 µM; in test [3], more than 100 µM; in test [4], more than 100 µM; in test [5] it was more than 100 µM; in test [6] it was 59.7 µM. Moreover, the GI50 in [7], in test [8], in [9] and in [10] was more than 100 µM throughout. Further, the TGI in [1], in [2], in test [3], in test [4], in [5] and in [6] was more than 100 µM throughout. In addition, the TGI in test [7], in test [8], in [9] and in test [10] was more than 100 µM in each case.
